Data reported in ChEMBL document CHEMBL1146255, “Synthesis of bisdesmosidic kryptogenyl saponins using the 'random glycosylation' strategy and evaluation of their antitumor activity” (Bioorg Med Chem Lett, 2007).

How the values were obtained:
Conditions in all cases: Homo sapiens
HeLa [1] = test: Antitumor activity against HeLa cells at 10 uM by MTT assay; type: functional
HeLa [2] = test: Antitumor activity against HeLa cells at 0.1 uM by MTT assay; type: functional
HeLa [3] = test: Antitumor activity against HeLa cells by MTT assay; type: functional, cell-based
HeLa [4] = test: Antitumor activity against HeLa cells at 10 nM by MTT assay; type: functional
HeLa [5] = test: Antitumor activity against HeLa cells at 1 uM by MTT assay; type: functional

Compound | IC50 (HeLa [3]) [µM] | inhibition at 10 µM (HeLa [1]) [%] | inhibition at 0.1 µM (HeLa [2]) [%] | inhibition at 0.01 µM (HeLa [4]) [%] | inhibition at 1 µM (HeLa [5]) [%]
C[C@H](CCC(=O)[C@@H](C)[C@H]1C(=O)C[C@H]2[C@@H]3CC=C4C[C@@H](O[C@@H]5O[C@@H](C)[C@H](O)[C@@H](O)[C@H]5O)CC[C@]4(C)[C@H]3CC[C@]12C)CO[C@@H]1O[C@@H](C)[C@H](O)[C@@H](O)[C@H]1O | > 10 | 26.2 | 14.3 | 7.19 | 21.2
C[C@H](CCC(=O)[C@@H](C)[C@H]1C(=O)C[C@H]2[C@@H]3CC=C4C[C@@H](O[C@@H]5OC[C@@H](O)[C@H](O)[C@H]5O)CC[C@]4(C)[C@H]3CC[C@]12C)CO[C@@H]1O[C@H](CO)[C@@H](O)[C@H](O)[C@H]1O | > 10 | 30.9 | 19.3 | 17.5 | 23
C[C@H](CCC(=O)[C@@H](C)[C@H]1C(=O)C[C@H]2[C@@H]3CC=C4C[C@@H](O[C@@H]5O[C@@H](C)[C@H](O)[C@@H](O)[C@H]5O)CC[C@]4(C)[C@H]3CC[C@]12C)CO[C@@H]1OC[C@H](O)[C@H](O)[C@H]1O | 8.36 | 60.1 | 6.93 | 1.35 | 6.34
C[C@H](CCC(=O)[C@@H](C)[C@H]1C(=O)C[C@H]2[C@@H]3CC=C4C[C@@H](O[C@@H]5OC[C@H](O)[C@H](O)[C@H]5O)CC[C@]4(C)[C@H]3CC[C@]12C)CO[C@@H]1O[C@@H](CO)[C@H](O)[C@@H](O)[C@@H]1O | > 10 | 9.71 | 3.84 | 3.25 | 4.79
C[C@H](CCC(=O)[C@@H](C)[C@H]1C(=O)C[C@H]2[C@@H]3CC=C4C[C@@H](O[C@@H]5O[C@@H](C)[C@H](O)[C@@H](O)[C@H]5O)CC[C@]4(C)[C@H]3CC[C@]12C)CO[C@@H]1O[C@H](CO)[C@@H](O)[C@H](O)[C@H]1O | > 10 | 15.1 | 1.66 | 0.16 | 1.67
C[C@H](CCC(=O)[C@@H](C)[C@H]1C(=O)C[C@H]2[C@@H]3CC=C4C[C@@H](O[C@@H]5O[C@H](CO)[C@@H](O)[C@H](O)[C@H]5O)CC[C@]4(C)[C@H]3CC[C@]12C)CO[C@@H]1O[C@H](CO)[C@@H](O)[C@H](O)[C@H]1O | > 10 | 3.46 | 1.78 | 0.46 | 2.31
C[C@H](CCC(=O)[C@@H](C)[C@H]1C(=O)C[C@H]2[C@@H]3CC=C4C[C@@H](O[C@@H]5O[C@H](CO)[C@@H](O)[C@H](O)[C@H]5O)CC[C@]4(C)[C@H]3CC[C@]12C)CO[C@@H]1O[C@@H](C)[C@H](O)[C@@H](O)[C@H]1O | > 10 | 10.5 | 7.16 | 3.42 | 9.94
C[C@H](CCC(=O)[C@@H](C)[C@H]1C(=O)C[C@H]2[C@@H]3CC=C4C[C@@H](O[C@@H]5O[C@@H](C)[C@H](O)[C@@H](O)[C@H]5O)CC[C@]4(C)[C@H]3CC[C@]12C)CO[C@@H]1OC[C@@H](O)[C@H](O)[C@H]1O | > 10 | 28.5 | 20.1 | 13.6 | 20.7
C[C@H](CCC(=O)[C@@H](C)[C@H]1C(=O)C[C@H]2[C@@H]3CC=C4C[C@@H](O[C@@H]5OC[C@H](O)[C@H](O)[C@H]5O)CC[C@]4(C)[C@H]3CC[C@]12C)CO[C@@H]1O[C@@H](C)[C@H](O)[C@@H](O)[C@H]1O | > 10 | 10.3 | 7.51 | 6.36 | 9.25
C[C@H](CCC(=O)[C@@H](C)[C@H]1C(=O)C[C@H]2[C@@H]3CC=C4C[C@@H](O[C@@H]5O[C@H](CO)[C@@H](O)[C@H](O)[C@H]5O)CC[C@]4(C)[C@H]3CC[C@]12C)CO[C@@H]1OC[C@@H](O)[C@H](O)[C@H]1O | > 10 | 24.8 | 12.8 | 7.95 | 14.5
C[C@H](CCC(=O)[C@@H](C)[C@H]1C(=O)C[C@H]2[C@@H]3CC=C4C[C@@H](O[C@@H]5O[C@H](CO)[C@@H](O)[C@H](O)[C@H]5O)CC[C@]4(C)[C@H]3CC[C@]12C)CO[C@@H]1OC[C@H](O)[C@H](O)[C@H]1O | > 10 | 4.36 | 1.05 | 0.87 | 3.67

More lines, main results first:

IC50 (HeLa [3]) [µM] | Compound | inhibition at 10 µM (HeLa [1]) [%] | inhibition at 0.1 µM (HeLa [2]) [%] | inhibition at 0.01 µM (HeLa [4]) [%] | inhibition at 1 µM (HeLa [5]) [%]
4.25 | C[C@H](CCC(=O)[C@@H](C)[C@H]1C(=O)C[C@H]2[C@@H]3CC=C4C[C@@H](O[C@@H]5OC[C@H](O)[C@H](O)[C@H]5O)CC[C@]4(C)[C@H]3CC[C@]12C)CO[C@@H]1OC[C@H](O)[C@H](O)[C@H]1O | 62 | 1.64 | 0.26 | 4.34
> 10 | C[C@H](CCC(=O)[C@@H](C)[C@H]1C(=O)C[C@H]2[C@@H]3CC=C4C[C@@H](O[C@@H]5OC[C@H](O)[C@H](O)[C@H]5O)CC[C@]4(C)[C@H]3CC[C@]12C)CO[C@@H]1OC[C@@H](O)[C@H](O)[C@H]1O | 11.8 | 1.79 | 0.98 | 2.84
> 10 | C[C@@H](CO)CCC(=O)[C@@H](C)[C@H]1C(=O)C[C@H]2[C@@H]3CC=C4C[C@@H](O)CC[C@]4(C)[C@H]3CC[C@]12C | 22.3 | 13.8 | 9.49 | 17.3
> 10 | C[C@H](CCC(=O)[C@@H](C)[C@H]1C(=O)C[C@H]2[C@@H]3CC=C4C[C@@H](O[C@@H]5OC[C@@H](O)[C@H](O)[C@H]5O)CC[C@]4(C)[C@H]3CC[C@]12C)CO[C@@H]1OC[C@@H](O)[C@H](O)[C@H]1O | 17.6 | 14.2 | 6 | 16.3
> 10 | CC(=O)OC[C@H](C)CCC(=O)[C@@H](C)[C@H]1C(=O)C[C@H]2[C@@H]3CC=C4CC(OC(=O)c5ccccc5)CC[C@]4(C)[C@H]3CC[C@]12C (stereo not given in full) | 18.5 | 12.1 | 8.33 | 11
> 10 | C[C@H](CCC(=O)[C@@H](C)[C@H]1C(=O)C[C@H]2[C@@H]3CC=C4C[C@@H](O[C@@H]5OC[C@@H](O)[C@H](O)[C@H]5O)CC[C@]4(C)[C@H]3CC[C@]12C)CO[C@@H]1OC[C@H](O)[C@H](O)[C@H]1O | 30.9 | 5.45 | 0.68 | 10.6
